The record followed here is patent US8476253B2, “Amide derivative” (Daiichi Sankyo Company, Limited, priority 2009, dated 2013).

SMILES strings stand for the structures. Structures can show the parent of a compound that is named as a salt. Where two headings read alike, the source gives them in different places.

Experiment [1] concerns the target T1, neurokinin NK1 receptor (Cavia porcellus, UniProt P30547).
T1 construct: Using healthy guinea pigs (body weight, 350 to 550 g; Hartley male guinea pigs); from tissue; host or cells: live anaesthetised Hartley male guinea pigs (airway, in vivo)
Nature of the experiment: Effect of suppressing substance P-induced airway contraction (in vivo, intratracheal administration). Also on record: species or system guinea pig. The note with it: guinea pigs, intratracheal administration 60 minutes before 20 μg/kg i.v. SP, AUC of increase in airway pressure over 10 minutes; for ED50: guinea pig, read-out: ID50 (the source's name). Put shortly:
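Anaesthetised, gallamine-paralysed, ventilated male Hartley guinea pigs; compound in 5% glucose given intratracheally 60 min before 20 μg/kg i.v. substance P. Airway-pressure increase AUC over 10 min, inhibition versus vehicle group, expressed as ID50.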

Experiment [2] addresses T2, substance P receptor (Cavia porcellus, UniProt P30547).
T2 construct: A preparation of a crude lung membrane sample was prepared; from tissue; host or cells: guinea-pig lung (crude membrane sample)
The experiment is described as follows: Test for binding to guinea-pig substance P receptor (crude lung membrane sample). The following applies: crude guinea-pig lung membrane sample, [3H]substance P; Ki from IC50 and Kd; read-out: Ki. Here is the method: A preparation of a crude lung membrane sample was prepared, and a test for binding of a test substance to the sample was performed according to the method described in EP0336230A2.
The binding effect of the test substance to a substance P receptor was calculated as an affinity (Ki) of the test substance for the substance P receptor from a 50% binding concentration (IC50) and an affinity (Kd) of [^3H]substance P for the substance P receptor.

The target of experiment [3] is T3, human NK2 receptor (Homo sapiens, UniProt P21452).
T3 construct: expressed in transfected cells; host or cells: COS cells
T3 sequence (P21452 1-398): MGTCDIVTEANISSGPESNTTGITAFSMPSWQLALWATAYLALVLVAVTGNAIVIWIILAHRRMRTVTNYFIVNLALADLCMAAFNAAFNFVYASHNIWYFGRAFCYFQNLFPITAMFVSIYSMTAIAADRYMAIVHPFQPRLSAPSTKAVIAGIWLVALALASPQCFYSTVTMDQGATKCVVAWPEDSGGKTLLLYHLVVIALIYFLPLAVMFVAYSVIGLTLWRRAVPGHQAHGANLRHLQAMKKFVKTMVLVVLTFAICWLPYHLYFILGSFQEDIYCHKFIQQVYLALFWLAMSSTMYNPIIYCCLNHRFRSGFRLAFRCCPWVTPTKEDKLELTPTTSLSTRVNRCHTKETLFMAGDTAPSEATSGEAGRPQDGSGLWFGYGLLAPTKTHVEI
The experiment is described as follows: Test for binding to human NK2 receptor. The procedure, abridged:
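Radioligand binding with [^3H]SR 48968 on cryopreserved COS cells expressing human NK2 receptor (5.0×10^5 cells/mL), in 50 mM Tris-HCl pH 7.4 with BSA, MnCl2 and protease inhibitors. Bound label collected on PEI-treated GF/B filters, counted by liquid scintillation; Ki derived from IC50 and radioligand Kd.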

The mark [4] stands for this setting: COS cells expressing human NK2 receptor, [3H]SR 48968 1 nM, Ki from IC50 and Kd, read-out: Ki.

T1 sequence (P30547 whole entry): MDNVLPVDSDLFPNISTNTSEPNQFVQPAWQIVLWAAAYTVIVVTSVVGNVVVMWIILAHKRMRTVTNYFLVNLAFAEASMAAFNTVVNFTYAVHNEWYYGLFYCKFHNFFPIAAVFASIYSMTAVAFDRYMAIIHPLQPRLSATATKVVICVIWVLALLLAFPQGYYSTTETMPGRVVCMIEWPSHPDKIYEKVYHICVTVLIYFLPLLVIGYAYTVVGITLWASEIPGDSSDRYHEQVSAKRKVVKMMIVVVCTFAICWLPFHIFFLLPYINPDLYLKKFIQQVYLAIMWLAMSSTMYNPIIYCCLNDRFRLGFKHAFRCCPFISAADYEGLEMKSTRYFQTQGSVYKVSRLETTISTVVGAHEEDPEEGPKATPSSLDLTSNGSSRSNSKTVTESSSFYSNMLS
T2 sequence (P30547 whole entry): as above

As for `CN(CCN1CCC(OC(=O)Nc2ccccc2-c2ccccc2)CC1)C(=O)CCCCN(C)c1ccc(C(=O)N(C)CCCN(C)C(=O)CO[C@H]2Cc3ccccc3C23CCN(CC[C@@]2(c4ccc(F)cc4)CN(C(=O)c4cc(C(F)(F)F)cc(C(F)(F)F)c4)CO2)CC3)cc1` [Example 38, 1-{2-[{5-[{4-[{3-[({[(2S)-1′-{2-[(5R)-3-[3,5-Bis(trifluoromethyl)benzoyl]-5-(4-fluorophenyl)-1,3-oxazolidin-5-yl]ethyl}-2,3-dihydrospiro[indene-1,4′-piperidin]-2-yl]oxy}acetyl)(methy)amino]propyl}(methyl)carbamoyl]phenyl}(methyl)amino]pentanoyl}(methyl)amino]ethyl}piperidin-4-yl biphenyl-2-ylcarbamate trihydrochloride], the ED50 in experiment [1] turned out to be 0.0161 mg/kg. Also, the results for the Ki in experiment [2] and in experiment [3] (setting [4]) were 1.5 nM and 0.89 nM, respectively.
With `CN(CCN1CCC(OC(=O)Nc2ccccc2-c2ccccc2)CC1)C(=O)CCCCCNc1ccc(C(=O)N(C)CCN(C)C(=O)CO[C@H]2Cc3ccccc3C23CCN(CC[C@@]2(c4ccc(F)cc4)CN(C(=O)c4cc(C(F)(F)F)cc(C(F)(F)F)c4)CO2)CC3)cc1` [Example 16, 1-(2-{[6-({4-[{2-[({[(2S)-1′-{2-[(5R)-3-[3,5-Bis(trifluoromethyl)benzoyl]-5-(4-fluorophenyl)-1,3-oxazolidin-5-yl]ethyl}-2,3-dihydrospiro[indene-1,4′-piperidin]-2-yl]oxy}acetyl)(methyl)amino]ethyl}(methyl)carbamoyl]phenyl}amino)hexanoyl](methyl)amino}ethyl)piperidin-4-yl biphenyl-2-ylcarbamate trihydrochloride], in experiment [1], the ED50 stood at 0.016 mg/kg. Further, the Ki in experiment [2] stood at 2.5 nM; in experiment [3], 0.49 nM.
On to `CN(CCN1CCC(OC(=O)Nc2ccccc2-c2ccccc2)CC1)C(=O)CCCCCNc1ccc(C(=O)N2CCCN(C(=O)CO[C@H]3Cc4ccccc4C34CCN(CC[C@@]3(c5ccc(F)cc5)CN(C(=O)c5cc(C(F)(F)F)cc(C(F)(F)F)c5)CO3)CC4)CC2)cc1` [Example 110, 1-{2-[{6-[(4-{[4-({[(2S)-1′-{2-[(5R)-3-[3,5-Bis(trifluoromethyl)benzoyl]-5-(4-fluorophenyl)-1,3-oxazolidin-5-yl)ethyl}-2,3-dihydrospiro[indene-1,4′-piperidin]-2-yl]oxy}acetyl)-1,4-diazepan-1-yl]carbonyl}phenyl)amino]hexanoyl}(methyl)amino]ethyl}piperidin-4-yl biphenyl-2-ylcarbamate trihydrochloride], for which, in experiment [1], the ED50 was found to be 0.0174 mg/kg. Besides, the inhibition constant Ki in experiment [2] came to 1.7 nM; in experiment [3], 0.6 nM.
Molecule `CN(CCN1CCC(OC(=O)Nc2ccccc2-c2ccccc2)CC1)C(=O)CCCCCNc1nc2ccc(C(=O)N(C)CCCN(C)C(=O)CO[C@H]3Cc4ccccc4C34CCN(CC[C@@]3(c5ccc(F)cc5)CN(C(=O)c5cc(C(F)(F)F)cc(C(F)(F)F)c5)CO3)CC4)cc2s1` [Example 93, 1-(2-{[6-({6-[{3-[({[(2S)-1′-{2-[(5R)-3-[3,5-Bis(trifluoromethyl)benzoyl]-5-(4-fluorophenyl)-1,3-oxazolidin-5-yl]ethyl}-2,3-dihydrospiro[indene-1,4′-piperidin]-2-yl]oxy}acetyl)(methy)amino]propyl}(methyl)carbamoyl]-1,3-benzothiazol-2-yl}amino)hexanoyl](methyl)amino}ethyl)piperidin-4-yl biphenyl-2-ylcarbamate] had an ID50 in experiment [1] of 0.0416 mg/kg. Moreover, the figures for the Ki in experiment [2] and in experiment [3] (setting [4]) were 1 nM and 0.55 nM, respectively.
As for `Cc1cc(NCCCCCC(=O)N(C)CCN2CCC(OC(=O)Nc3ccccc3-c3ccccc3)CC2)sc1C(=O)N(C)CCCN(C)C(=O)CO[C@H]1Cc2ccccc2C12CCN(CC[C@@]1(c3ccc(F)cc3)CN(C(=O)c3cc(C(F)(F)F)cc(C(F)(F)F)c3)CO1)CC2` [Example 30, 1-(2-{[6-({5-[{3-[({[(2S)-1′-{2-[(5R)-3-[3,5-Bis(trifluoromethyl)benzoyl]-5-(4-fluorophenyl)-1,3-oxazolidin-5-yl]ethyl}-2,3-dihydrospiro[indene-1,4′-piperidin]-2-yl]oxy}acetyl)(methyl)amino]propyl}(methyl)carbamoyl]-4-methyl-2-thienyl}amino)hexanoyl](methyl)amino}ethyl)piperidin-4-yl biphenyl-2-ylcarbamate trihydrochloride], the ED50 in experiment [1] turned out to be 0.0388 mg/kg. Further, the Ki in experiment [2] came out at 1.9 nM; in experiment [3], 0.71 nM.
On to `CN(CCN1CCC(OC(=O)Nc2ccccc2-c2ccccc2)CC1)C(=O)CCCCNc1ccc(C(=O)N(C)CCCN(C)C(=O)CO[C@H]2Cc3ccccc3C23CCN(CC[C@@]2(c4ccc(F)cc4)CN(C(=O)c4cc(C(F)(F)F)cc(C(F)(F)F)c4)CO2)CC3)cc1` [Example 32, 1-(2-{[5-({4-[{3-[({[(2S)-1′-{2-[(5R)-3-[3,5-Bis(trifluoromethyl)benzoyl]-5-(4-fluorophenyl)-1,3-oxazolidin-5-yl]ethyl}-2,3-dihydrospiro[indene-1,4′-piperidin]-2-yl]oxy}acetyl)(methyl)amino]propyl}(methyl)carbamoyl]phenyl}amino)pentanoyl](methyl)amino}ethyl)piperidin-4-yl biphenyl-2-ylcarbamate trihydrochloride], for which, in experiment [1], the ED50 worked out at 0.0202 mg/kg. Besides, the inhibitory constant (Ki) came to 1.3 nM in experiment [2] and 0.74 nM in experiment [3].
For `CN(CCN1CCC(OC(=O)Nc2ccccc2-c2ccccc2)CC1)C(=O)CCCCCNCc1ccc(C(=O)N(C)CCCN(C)C(=O)CO[C@H]2Cc3ccccc3C23CCN(CC[C@@]2(c4ccc(F)cc4)CN(C(=O)c4cc(C(F)(F)F)cc(C(F)(F)F)c4)CO2)CC3)s1` [Example 1, 1-{2-[{6-[({5-[{3-[({[(2S)-1′-{2-[(5R)-3-[3,5-Bis(trifluoromethyl)benzoyl]-5-(4-fluorophenyl)-1,3-oxazolidin-5-yl]ethyl}-2,3-dihydrospiro[indene-1,4′-piperidin]-2-yl]oxy}acetyl)(methyl)amino]propyl}(methyl)carbamoyl]-2-thienyl}methyl)amino]hexanoyl}(methyl)amino]ethyl}piperidin-4-yl biphenyl-2-ylcarbamate], the ED50 in experiment [1] stood at 0.0147 mg/kg. Moreover, the inhibitory constant (Ki) in experiment [2] worked out at 1.5 nM; in experiment [3] (setting [4]), 0.57 nM.
Consider `CN(CCN1CCC(OC(=O)Nc2ccccc2-c2ccccc2)CC1)C(=O)CCCCCNc1ccc(C(=O)N(C)CCCN(C)C(=O)CO[C@H]2Cc3ccccc3C23CCN(CC[C@@]2(c4ccc(F)cc4)CN(C(=O)c4cc(C(F)(F)F)cc(C(F)(F)F)c4)CO2)CC3)cc1` [Example 72, 1-(2-{[6-({4-[{3-[({[(2S)-1′-{2-[(5R)-3-[3,5-Bis(trifluoromethyl)benzoyl]-5-(4-fluorophenyl)-1,3-oxazolidin-5-yl]ethyl}-2,3-dihydrospiro[indene-1,4′-piperidin]-2-yl]oxy}acetyl)(methyl)amino]propyl}(methyl)carbamoyl]phenyl}amino)hexanoyl](methyl)amino}ethyl)piperidin-4-yl biphenyl-2-ylcarbamate], for which the ED50 in experiment [1] was found to be 0.0266 mg/kg. Besides, the values for the Ki in experiment [2] and in experiment [3] (setting [4]) were 1.4 nM and 0.52 nM, respectively.
